In ChEMBL document CHEMBL5376005, “Gut Metabolite Indoxyl Sulfate Has Selective Deleterious and Anticancer Effect on Colon Cancer Cells” (J Med Chem, 2023):
Structures can show the parent of a compound that is named as a salt. Activity calls are given as the source filed them. The calls are words filed in the database; no cut-off is given here.

Tests used:
[1] = test system: HT-29; experiment: Induction of morphological changes in human HT-29 cells assessed as formation of intracellular vesicles at 1.25 to 10 mM incubated for 24 to 72 hrs by bright field microscopy analysis; format: functional, cell-based; conditions: dose 1.25-10 mM, time 24-72 hrs
[2] = test system: HCT-116; experiment: Induction of morphological changes in human HCT-116 cells assessed as loss of adhesion with free floating in medium at 10 mM incubated for 24 to 72 hrs by bright field microscopy analysis; format: functional, cell-based; conditions: time 24-72 hrs
[3] = test system: HT-29; experiment: Induction of morphological changes in human HT-29 cells assessed as loss of adhesion with free floating in medium at 10 mM incubated for 24 to 72 hrs by bright field microscopy analysis; format: functional, cell-based; conditions: time 24-72 hrs
[4] = test system: HCT-116; experiment: Cytotoxicity against human HCT-116 cells assessed as reduction in colony formation pretreated for 48 hrs and further incubated for 10 days with media replacement for every alternate day; format: functional, cell-based; conditions: dose 1.25-10 mM
[5] = test system: HT-29; experiment: Cytotoxicity against human HT-29 cells assessed as reduction in colony formation pretreated for 48 hrs and further incubated for 10 days with media replacement for every alternate day; format: functional, cell-based; conditions: dose 1.25-10 mM
[6] = test system: HCT-116; experiment: Induction of cell cycle arrest in human HCT-116 cells assessed as increase in proportion of cells at G2/M phase at 5 mM incubated for 48 hrs by RNase A/Triton X-100/PI staining based flow cytometry analysis relative to control; format: functional
[7] = test system: HCT-116; experiment: Induction of cell cycle arrest in human HCT-116 cells assessed as increase in proportion of cells at G2/M phase at 10 mM incubated for 48 hrs by RNase A/Triton X-100/PI staining based flow cytometry analysis relative to control; format: functional
[8] = test system: HT-29; experiment: Induction of cell cycle arrest in human HT-29 cells assessed as increase in proportion of cells at G2/M phase at 5 mM incubated for 48 hrs by RNase A/Triton X-100/PI staining based flow cytometry analysis relative to control; format: functional
[9] = test system: HT-29; experiment: Induction of cell cycle arrest in human HT-29 cells assessed as increase in proportion of cells at G2/M phase at 10 mM incubated for 48 hrs by RNase A/Triton X-100/PI staining based flow cytometry analysis relative to control; format: functional
[10] = test system: HCT-116; experiment: Induction of cell cycle arrest in human HCT-116 cells assessed as increase in proportion of cells at G2/M phase incubated for 48 hrs by RNase A/Triton X-100/PI staining based flow cytometry analysis; format: functional; conditions: dose 1.25-10 mM
[11] = test system: HT-29; experiment: Induction of cell cycle arrest in human HT-29 cells assessed as increase in proportion of cells at G2/M phase incubated for 48 hrs by RNase A/Triton X-100/PI staining based flow cytometry analysis; format: functional; conditions: dose 1.25-10 mM
[12] = Toxicity in wild type BALB/c mouse assessed as reduction in body weight at 100 mM, ip measured after 12 weeks; format: organism-based; conditions: in vivo, 2016 h, 100000 µM
[13] = Toxicity in wild type BALB/c mouse assessed as reduction in body weight at 100 mM, REC measured after 12 weeks; conditions: in vivo, other, 2016 h, 100000 µM
[14] = Toxicity in wild type BALB/c mouse assessed as change in spleen length at 100 mM, ip measured after 12 weeks; format: organism-based; conditions: in vivo, 2016 h, 100000 µM
[15] = Toxicity in wild type BALB/c mouse assessed as change in spleen length at 100 mM, REC measured after 12 weeks; conditions: in vivo, other, 2016 h, 100000 µM
[16] = Toxicity in wild type BALB/c mouse assessed as change in intestinal length at 100 mM, ip measured after 12 weeks; format: organism-based, Intestine; conditions: in vivo, 2016 h, 100000 µM
[17] = Toxicity in wild type BALB/c mouse assessed as change in intestinal length at 100 mM, REC measured after 12 weeks; format: tissue-based, Intestine; conditions: in vivo, other, 2016 h, 100000 µM
[18] = Toxicity in wild type BALB/c mouse assessed as histological change in colon at 100 mM, ip measured after 12 weeks by H and E staining based light microscopic analysis; format: organism-based; conditions: in vivo, 2016 h, 100000 µM
[19] = Toxicity in wild type BALB/c mouse assessed as histological change in colon at 100 mM, REC measured after 12 weeks by H and E staining based light microscopic analysis; format: tissue-based; conditions: in vivo, other, 2016 h, 100000 µM
[20] = Toxicity in wild type BALB/c mouse assessed as histological change in rectum at 100 mM, ip measured after 12 weeks by H and E staining based light microscopic analysis; format: organism-based; conditions: in vivo, 2016 h, 100000 µM
[21] = Toxicity in wild type BALB/c mouse assessed as histological change in rectum at 100 mM, REC measured after 12 weeks by H and E staining based light microscopic analysis; conditions: in vivo, other, 2016 h, 100000 µM
[22] = Toxicity in wild type BALB/c mouse assessed as inflammatory symptoms by measuring change in fecal consistency at 100 mM, REC measured after 12 weeks; conditions: in vivo, other, 2016 h, 100000 µM
[23] = Toxicity in wild type BALB/c mouse assessed as inflammatory symptoms by measuring change in fecal consistency at 100 mM, ip measured after 12 weeks; format: organism-based; conditions: in vivo, 2016 h, 100000 µM
[24] = Toxicity in wild type BALB/c mouse assessed as inflammatory symptoms by measuring change in IL-17 level at 100 mM, ip measured for 0 to 3 months by ELISA; format: organism-based; conditions: in vivo, 100000 µM, time 0-3 months
[25] = Toxicity in wild type BALB/c mouse assessed as inflammatory symptoms by measuring change in IL-17 level at 100 mM, REC measured for 0 to 3 months by ELISA; conditions: in vivo, other, 100000 µM, time 0-3 months
[26] = Toxicity in wild type BALB/c mouse assessed as inflammatory symptoms by measuring change in IL-1beta level at 100 mM, ip measured for 0 to 3 months by ELISA; format: organism-based; conditions: in vivo, 100000 µM, time 0-3 months
[27] = Toxicity in wild type BALB/c mouse assessed as inflammatory symptoms by measuring change in IL-1beta level at 100 mM, REC measured for 0 to 3 months by ELISA; conditions: in vivo, other, 100000 µM, time 0-3 months
[28] = Toxicity in wild type BALB/c mouse assessed as inflammatory symptoms by measuring change in TNFalpha level at 100 mM, ip measured for 0 to 3 months by ELISA; format: organism-based; conditions: in vivo, 100000 µM, time 0-3 months
[29] = Toxicity in wild type BALB/c mouse assessed as inflammatory symptoms by measuring change in TNFalpha level at 100 mM, REC measured for 0 to 3 months by ELISA; conditions: in vivo, other, 100000 µM, time 0-3 months
[30] = test system: HCT-116; experiment: Induction of ROS production in human HCT-116 cells incubated for 48 hrs by DHE staining based analysis; format: functional, cell-based
[31] = test system: HT-29; experiment: Induction of ROS production in human HT-29 cells incubated for 48 hrs by DHE staining based analysis; format: functional, cell-based
[32] = test system: HCT-116; experiment: Induction of DNA damage in human HCT-116 cells by comet assay; format: functional, cell-based
[33] = test system: HT-29; experiment: Induction of DNA damage in human HT-29 cells by comet assay; format: functional, cell-based

## O=S(=O)(O)Oc1c[nH]c2ccccc12 [INDOXYL SULFATE]
[1]
  Activity: Active
[2]
  Activity: Active
[3]
  Activity: Active
[4]
  Activity: Dose-Dependent Effect
[5]
  Activity: Dose-Dependent Effect
[6]
  Activity: 18.1%
[7]
  Activity: 22.7%
[8]
  Activity: 14.2%
[9]
  Activity: 17.3%
[10]
  Activity: Dose-Dependent Effect
[11]
  Activity: Dose-Dependent Effect
[12]
  Activity: Non-Toxic
[13]
  Activity: Non-Toxic
[14]
  Activity: Non-Toxic
[15]
  Activity: Non-Toxic
[16]
  Activity: Non-Toxic
[17]
  Activity: Non-Toxic
[18]
  Activity: Non-Toxic
[19]
  Activity: Non-Toxic
[20]
  Activity: Non-Toxic
[21]
  Activity: Non-Toxic
[22]
  Activity: Non-Toxic
[23]
  Activity: Non-Toxic
[24]
  Activity: Non-Toxic
[25]
  Activity: Non-Toxic
[26]
  Activity: Non-Toxic
[27]
  Activity: Non-Toxic
[28]
  Activity: Non-Toxic
[29]
  Activity: Non-Toxic
[30]
  Activity: inactive
[31]
  Activity: inactive
[32]
  Activity: inactive
[33]
  Activity: inactive
